From patent EP3187180A1, “ADENOSYLHOMOCYSTEINASE BINDING SUBSTANCES FOR MEDICAL USE” (Ludwig-Maximilians-Universität München, priority 2015, dated 2017)
Changes are numbered by the printed parent chain. Like-named read-outs stand apart in the source and are kept apart here. Each block holds one compound with its values, some of them ahead of it.

Assays:
[1] = target: T1, AHCY D86G (Homo sapiens, UniProt P23526, D86G); experiment: Differential Scanning Fluorimetry (DSF), thermal unfolding; assay type: binding; settings: for TM = Temperature at the midpoint of protein unfolding transition: No NAD^+: 49,55; for ΔTm at 100 µM: read-out: ΔTM (midpoint of thermal unfolding shifted by)
T1 construct: made in house; host or cells: E. coli DH5a (with or without GroESL co-expression)
T1 sequence (P23526 1-432 D86G): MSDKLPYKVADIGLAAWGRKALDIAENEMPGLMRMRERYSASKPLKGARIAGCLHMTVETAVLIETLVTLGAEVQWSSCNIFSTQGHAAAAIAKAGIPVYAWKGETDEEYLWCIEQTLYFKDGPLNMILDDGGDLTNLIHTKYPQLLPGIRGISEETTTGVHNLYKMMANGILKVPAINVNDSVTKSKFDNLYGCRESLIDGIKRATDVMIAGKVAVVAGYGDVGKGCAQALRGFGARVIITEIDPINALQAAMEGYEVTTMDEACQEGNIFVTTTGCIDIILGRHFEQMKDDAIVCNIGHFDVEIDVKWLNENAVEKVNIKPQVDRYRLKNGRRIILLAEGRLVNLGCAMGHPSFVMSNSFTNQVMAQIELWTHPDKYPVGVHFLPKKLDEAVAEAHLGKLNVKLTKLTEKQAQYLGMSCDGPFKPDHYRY
Procedure: (§1) The potential of the binding of NAD^+ or an analogue of NAD^+ to the NAD^+ binding site and of the binding of an analogue of a substrate of AHCY to the substrate binding site of AHCY in stabilizing the enzyme and its activity was analyzed by use of Differential Scanning Fluorimetry (DSF). The following substrates were tested in the given concentrations:
(§2) The following five mutant proteins were selected for testing: • R49C, D86G, Y143C, A89V and Y379C.
(§3) Fluorescence measurements were carried out on a 7900 HT fast real-time PCR System (Applied Biosystems, Thermo Fisher Scientific Inc. USA). The data was recorded in Abi Prism SDS software. Samples contained AHCY-Maltose-Binding Protein fusion proteins, HEPES, and SYPRO Orange fluorescence dye (SYPRO® Orange Protein Gel Stain from Invitrogen, Thermo Fisher Scientific Inc. USA) in a 1:1000 dilution), which binds to exposed hydrophobic sites of unfolded proteins. For this dye, the wavelengths used for excitation and emission are 492 nm, respectively 610 nm. The assay was measured in quadruplicates on a 96-well PCR plate. Thermal denaturation was monitored by following the changes in SYPRO Orange fluorescence emission (excitation at 492 nm, emission at 610 nm). The measurement was performed in a 25 °C to 75 °C range, at a rate of 2 °C/min. Thermal denaturation curves were obtained by the plotting of fluorescence intensities against temperature and TM values as the midpoint of the protein-unfolding transition were calculated using the Boltzmann sigmoidal non-linear regression function in GraphPad Prism (GraphPad Prism 5.0, GraphPad Software Inc. USA). All measurements were corrected for background reduction of SYPRO Orange fluorescence. To analyze the stabilizing effect of different compounds different concentrations of NAD^+, NAD^+ analogues and substrate analogues were added to the samples. Significances between wild-type and mutated apoenzymes and holoenzymes with stabilizing agents were calculated by one-way analysis of variance followed by Dunnett's post test (GraphPad Prism 5.0, GraphPad Software Inc. USA).
(§4) DSF is an excellent means to monitor global thermal unfolding events by probing the accessibility of the fluorescent dye Sypro Orange to hydrophobic groups within a protein. DSF was used in order to assess whether mutated AHCY proteins can be stabilized by various compounds at increasing temperatures. The stabilizing effect was evaluated by comparison of the unfolding transition midpoints (fraction unfolded = 0.5) as an operative measure of protein stability and by graphical analysis of the thermal denaturation curves. The midpoint of thermal unfolding of wild-type AHCY was shifted by an average of 2.27 °C towards higher temperatures by NAD^+ and NAD^+ analogues.

[2] = target: T2, AHCY R49C (Homo sapiens, UniProt P23526, R49C); experiment: as above; assay type: binding; settings: for TM = Temperature at the midpoint of protein unfolding transition: No NAD^+: 49,84
T2 construct: made in house; host or cells: E. coli DH5a (with or without GroESL co-expression)
T2 sequence (P23526 1-432 R49C): T1 sequence (P23526 1-432 D86G) with R49C, G86D
Procedure: as §1, §2, §3, §4

[3] = test system: AHCY wild-type and mutated AHCY proteins; experiment: Differential Scanning Fluorimetry (DSF), statements over the panel of proteins; assay type: binding, human; settings: wild-type and/or mutated AHCY proteins, 1-100 µM or 5-100 µM
[4] = target: T3, wild-type AHCY (Homo sapiens, UniProt P23526); experiment: Differential Scanning Fluorimetry (DSF), thermal unfolding; assay type: binding; settings: for TM = Temperature at the midpoint of protein unfolding transition: Wt, No NAD^+: 51,98
T3 construct: made in house; host or cells: E. coli DH5a (with or without GroESL co-expression)
T3 sequence (P23526 whole entry): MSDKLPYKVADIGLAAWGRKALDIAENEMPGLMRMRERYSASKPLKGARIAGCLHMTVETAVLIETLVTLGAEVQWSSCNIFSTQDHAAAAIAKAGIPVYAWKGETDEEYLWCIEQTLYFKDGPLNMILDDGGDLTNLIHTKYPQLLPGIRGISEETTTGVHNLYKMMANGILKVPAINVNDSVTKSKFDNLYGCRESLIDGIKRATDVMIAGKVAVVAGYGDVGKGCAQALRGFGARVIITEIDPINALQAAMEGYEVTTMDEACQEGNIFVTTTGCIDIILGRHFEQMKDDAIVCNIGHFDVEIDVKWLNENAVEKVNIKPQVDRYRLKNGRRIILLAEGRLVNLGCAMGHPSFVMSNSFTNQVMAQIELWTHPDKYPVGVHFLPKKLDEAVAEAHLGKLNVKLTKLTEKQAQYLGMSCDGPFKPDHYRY
Procedure: as §1, §3, §4

[5] = target: T4, AHCY Y143C (Homo sapiens, UniProt P23526, Y143C); experiment: as above; assay type: binding; settings: No NAD^+: 49,34
T4 construct: made in house; host or cells: E. coli DH5a (with or without GroESL co-expression)
T4 sequence (P23526 1-432 Y143C): T1 sequence (P23526 1-432 D86G) with G86D, Y143C
Procedure: as §1, §2, §3, §4

[6] = target: T5, AHCY A89V (Homo sapiens, UniProt P23526, A89V); experiment: as above; assay type: binding; settings: for TM = Temperature at the midpoint of protein unfolding transition: No NAD^+: 50,29
T5 construct: made in house; host or cells: E. coli DH5a (with or without GroESL co-expression)
T5 sequence (P23526 1-432 A89V): T1 sequence (P23526 1-432 D86G) with G86D, A89V
Procedure: as §1, §2, §3, §4

[7] = target: T6, AHCY Y379C (Homo sapiens, UniProt P23526, Y379C); experiment: as above; assay type: binding; settings: No NAD^+: 50,01
T6 construct: made in house; host or cells: E. coli DH5a (with or without GroESL co-expression)
T6 sequence (P23526 1-432 Y379C): T1 sequence (P23526 1-432 D86G) with G86D, Y379C
Procedure: as §1, §2, §3, §4

increase in TM (stabilizing the unfolding by) ([1]; D86G, concentration not given): 11.18 °C
ΔTm at 10 µM ([1]; read-out: ΔTM): 13.5 °C
Structure (SMILES): Nc1nccc2c1ncn2[C@@H]1C=C(CO)[C@@H](O)[C@H]1O [DZNep, 3-Deazaneplanocin A]

Structure (SMILES): NC(=O)c1ccc[n+]([C@@H]2O[C@H](COP(=O)([O-])OP(=O)(O)OC[C@H]3O[C@@H](n4cnc5c4ncn4ccnc54)[C@H](O)[C@@H]3O)[C@@H](O)[C@H]2O)c1 [E-NAD^+, nicotinamide 1,N^6-ethenoadenine dinucleotide]
ΔTM (increase in TM) ([2]; concentration not given): 4.36 °C
stabilizing effect on thermal stability (in words) [3]: considerable stabilization

Structure (SMILES): NC(=O)c1ccc[n+]([C@@H]2O[C@H](COP(=O)([O-])OP(=O)(O)OC[C@H]3O[C@@H](n4cnc5c(N)ncnc54)[C@H](O)[C@@H]3O)[C@@H](O)[C@H]2O)c1 [NAD^+, nicotinamide adenine dinucleotide]
ΔTm at 100 µM ([4]; AHCY wild-type, 100 µM, read-out: stabilized the unfolding transition by (shift of TM)): 2.34 °C
TM = Temperature at the midpoint of protein unfolding transition ([4]; 5 µM): 52,24
TM = Temperature at the midpoint of protein unfolding transition ([4]; 11 µM): 53,99
TM = Temperature at the midpoint of protein unfolding transition ([4]; 100 µM): 54,32
TM = Temperature at the midpoint of protein unfolding transition ([5]; 5 µM): 50,62
TM = Temperature at the midpoint of protein unfolding transition ([5]; 11 µM): 52,36
TM = Temperature at the midpoint of protein unfolding transition ([5]; 100 µM): 52,17
TM = Temperature at the midpoint of protein unfolding transition ([6]; 5 µM): 51,97
TM = Temperature at the midpoint of protein unfolding transition ([6]; 11 µM): 53,52
TM = Temperature at the midpoint of protein unfolding transition ([6]; 100 µM): 54,59
TM = Temperature at the midpoint of protein unfolding transition ([7]; 5 µM): 51,31
TM = Temperature at the midpoint of protein unfolding transition ([7]; 11 µM): 52,45
TM = Temperature at the midpoint of protein unfolding transition ([7]; 100 µM): 52,48
TM = Temperature at the midpoint of protein unfolding transition ([1]; D86G, 5 µM): 51,88
TM = Temperature at the midpoint of protein unfolding transition ([1]; D86G, 11 µM): 53,51
TM = Temperature at the midpoint of protein unfolding transition ([1]; D86G, 100 µM): 54,02
ΔTm at 100 µM [1]: 4.47 °C
TM = Temperature at the midpoint of protein unfolding transition ([2]; 5 µM): 51,48
TM = Temperature at the midpoint of protein unfolding transition ([2]; 11 µM): 52,55
TM = Temperature at the midpoint of protein unfolding transition ([2]; 100 µM): 52,75
stabilizing effect on thermal stability (in words) [3]: very good effects

ΔTm at 100 µM ([1]; D86G, 100 µM): 6.7 °C
Structure (SMILES): NC(=S)c1ccc[n+]([C@@H]2O[C@H](COP(=O)([O-])OP(=O)(O)OC[C@H]3O[C@@H](n4cnc5c(N)ncnc54)[C@H](O)[C@@H]3O)[C@@H](O)[C@H]2O)c1 [S-NAD^+, thionicotinamide adenine dinucleotide]
stabilizing effect on thermal stability (in words) [3]: improved resistance against thermal stress

shifting the midpoint of thermal unfolding by ([6]; concentration not given): 8.9 °C
Structure (SMILES): C=C1CCC[C@H]2[C@](C)(CC3=C(O)C(=O)C=C(OC)C3=O)[C@@H](C)CC[C@]12C [ilimaquinone]

Structure (SMILES): NC(=O)c1ncn([C@@H]2O[C@H](CO)[C@@H](O)[C@H]2O)n1 [ribavirin, 1-[(2R,3R,4S,5R)-3,4-dihydroxy-5-(hydroxymethyl)oxolan-2-yl]-1H-1,2,4-triazole-3-carboxamide]
stabilizing effect on thermal stability (in words) [3]: good stabilizing effect
